According to US10105362B2, “Anti-tumor use of anagrelide and derivatives thereof” (SHANGHAI INSTITUTE OF MATERIA MEDICA, CHINESE ACADEMY OF …, priority 2013, dated 2018):
Entries after “also recorded” stand apart in the source; their conditions may differ.

Experiments:
[1] = Body weight of tumor-bearing nude mice; assay type: in vivo, BALB/c naked mouse; details: 21 days
Procedure: (§1) Under aseptic conditions, tumor cells in the proliferation stage were taken. The cell concentration was adjusted after digestion, seeded at right armpit of nude mice, and the inoculated volume was 0.1 mL. Tumor diameter was measured with vernier caliper, after the tumor was grown to 200-300 mm^3, the tumor-bearing mice were selected, and randomly divided into 3 groups (n=4) according to the size of the tumors: negative control group, Anagrelide I (10 mg/kg), Anagrelide II (30 mg/kg). Each group was intragastric administrated, the day of administration was recorded as d1, the negative control group was given same amount of vehicle, and then the long and short diameters of tumor were measured twice a week, while the body weights of mice were weighed. At the 21th day of the administration, the animals were sacrificed and the tumor was dissected and weighed. Before the animals were sacrificed, eyeball was taken for blood sample, the number of white blood cell (WBC), red blood cell (RBC), concentration of hemoglobin (Hb) and number of platelet (PLT) were measured.

tumor cells = test: Growth inhibition of tumor cells (summary statement); assay type: cell-based; details: 10 nM/L
HeLa cells = test: RTCA real-time monitoring of cell growth; assay type: cell-based, human; details: 100 nM, within 72 hours
Procedure: (§2) A real-time monitor from Roche was used to detect growth of cells. […] Logarithmic growth phase cells were digested with trypsin, centrifuged and resuspended, and were seeded at 3.5×10^4 /mL per well in 16-well plate matching to cell supporting real-time monitor, and the compound was dosed after 37° C. overnight incubation. Real-time monitoring was used to automatically detect the status of cell growth, and the cell number was reflected by the size of the resistance formed after cell spreading. The larger the cell index value, the faster the cell growth, and the more the number of cells. To further examine Anagrelide inhibition of cell growth, Hela, H4, FHCC98, SMMC7721, BEL7404, A498, SW1116 were taken for further experiment. Through cell real-time monitoring device, real-time monitoring of cell growth status change within 72 hours after Anagrelide administration was conducted (FIG. 3). 3000 cells/100 uL were plated, cultivated overnight, and 100 nM Anagrelide was added. The growth of cells was detected with real-time monitor.

FHCC98 cells = test: RTCA real-time monitoring of cell growth; assay type: cell-based, human; details: 100 nM, within 72 hours
Procedure: as §2

SMMC7721 cells = test: RTCA real-time monitoring of cell growth; assay type: cell-based, human; details: 100 nM, within 72 hours
Procedure: as §2

H4 cells = test: RTCA real-time monitoring of cell growth; assay type: cell-based, human; details: 100 nM, within 72 hours
Procedure: as §2

SW1116 cells = test: RTCA real-time monitoring of cell growth; assay type: cell-based, human; details: 100 nM, within 72 hours
Procedure: as §2

A498 cells = test: RTCA real-time monitoring of cell growth; assay type: cell-based, human; details: 100 nM, within 72 hours
Procedure: as §2

Bel7404 cells = test: RTCA real-time monitoring of cell growth; assay type: cell-based, human; details: 100 nM, within 72 hours
Procedure: as §2

phosphodiesterase (PDE) = details: subsequent studies; cited from earlier work
[2] = animal experiments, Fleming and Buyniski 1979; cited from earlier work
[3] = test system: human H4 transplantation tumor; test: Human H4 transplantation tumor in nude mice, tumor growth; assay type: in vivo, BALB/c naked mouse; details: for anti-tumor effect (tumor volume, tumor growth): 21 days, vs vehicle control; for tumor weight: end of the experiment (day 21)
Procedure: as §1

H1299 cells = test: MTT colorimetry, tumor cell growth/viability; assay type: cell-based, human; details: 50 μM, 72 hours
Procedure: (§3) Logarithmic growth phase cells were seeded in 96-well culture plate in appropriate density (100 μl in each well). After overnight cultivation, different concentrations of drugs were added and treated for 72 h, while three wells were set for each concentration. After treatment was completed, 20 μl/well of MTT (5 mg/ml in PBS) was added to each well and affected for 3-5 hours, the medium was suctioned out completely and 100 ul/well of DMSO was added, oscillated on decolorization shaker in dark place for 10 minutes until the Blue purple crystals formazan (formazan) was completely dissolved, the OD (Optical Density) value was detected with a microplate reader (detection wavelength: […]; reference wavelength: 650 nM). In blank group, culture medium only added without cells, and in control group, DMSO in the same volume as that for drug was added. Cell viability was calculated=(OD value of experimental group−OD value of control group)/(OD value of control group−OD value of blank group). Tumor cells from different tissue source were selected, and the concentration of Anagrelide was 1 μM and 50 μM, OD value was MTT detected after administrated for 72 hours, and the cell viability was calculated using cell viability=(administered group OD-blank group OD)/(control group OD-blank group OD)*100%, and was mapped by using GraphPadPrism 4 software.

U87-MG cells = test: MTT colorimetry, tumor cell growth/viability; assay type: cell-based, human; details: 50 μM, 72 hours
Procedure: as §3

MDA-MB-468 cells = test: MTT colorimetry, tumor cell growth/viability; assay type: cell-based, human; details: 50 μM, 72 hours
Procedure: as §3

MDA-MB-231 cells = test: MTT colorimetry, tumor cell growth/viability; assay type: cell-based, human; details: 50 μM, 72 hours
Procedure: as §3

Wi38 cells = test: MTT colorimetry, tumor cell growth/viability; assay type: cell-based, human; details: 50 μM, 72 hours
Procedure: as §3

DU145 cells = test: MTT colorimetry, tumor cell growth/viability; assay type: cell-based, human; details: 50 μM, 72 hours
Procedure: as §3

[4] = Blood routine test of tumor-bearing nude mice (WBC, RBC, Hb, PLT); assay type: in vivo, BALB/c naked mouse; details: day 21, vs vehicle control
Procedure: as §1

non-sensitive cell lines = test: Growth inhibition of non-sensitive cell lines (summary statement); assay type: cell-based; details: concentration raised up to 1 mM/L

O=C1CN2Cc3c(ccc(Cl)c3Cl)N=C2N1 [Anagrelide, 6,7-dichloro-1,5-dihydro-imidazo [2,1-b] quinazolin-2 (3H)-one]
effect on animal body weight ([1]; 10 mg/kg intragastric): no significant difference from the negative control group
effect on animal body weight ([1]; 30 mg/kg intragastric): no significant difference from the negative control group
growth inhibition of tumor cells (tumor cells): obviously inhibit the growth of tumor cells
cell growth status, real-time monitoring (HeLa cells): ultimately induced the cell death
cell growth status, real-time monitoring (FHCC98 cells): ultimately induced the cell death
cell growth status, real-time monitoring (SMMC7721 cells): ultimately induced the cell death
cell growth status, real-time monitoring (H4 cells): ultimately induced the cell death
cell growth status, real-time monitoring (SW1116 cells): did not cause the cell apoptosis within 72 hours, but the growth was suppressed
cell growth status, real-time monitoring (A498 cells): did not cause the cell apoptosis within 72 hours, but the growth was suppressed
cell growth status, real-time monitoring (Bel7404 cells): did not cause the cell apoptosis within 72 hours, but the growth was suppressed
phosphodiesterase (PDE) activity (phosphodiesterase (PDE)): capable of inhibiting phosphodiesterase (PDE) activity
anti-thrombotic function [2]: significant anti-thrombotic function
anti-tumor effect (tumor volume, tumor growth) ([3]; 10 mg/kg intragastric): significant anti-tumor effect
tumor weight ([3]; 10 mg/kg intragastric): significantly lower than that of the vehicle control group
anti-tumor effect (tumor volume, tumor growth) ([3]; 30 mg/kg intragastric): significant anti-tumor effect
tumor weight ([3]; 30 mg/kg intragastric): significantly lower than that of the vehicle control group; also recorded: less than that of Anagrelide I (10 mg/kg) group
inhibition of cell growth (H1299 cells): inhibited their growth
inhibition of cell growth (U87-MG cells): inhibited their growth
inhibition of cell growth (MDA-MB-468 cells): inhibited their growth
inhibition of cell growth (MDA-MB-231 cells): inhibited their growth
inhibition of cell growth (Wi38 cells): inhibited their growth
inhibition of cell growth (DU145 cells): inhibited their growth
blood routine test index (WBC, RBC, Hb, PLT) ([4]; 10 mg/kg intragastric): didn't show any significant decrease
blood routine test index (WBC, RBC, Hb, PLT) ([4]; 30 mg/kg intragastric): didn't show any significant decrease
growth inhibition of non-sensitive cell lines (non-sensitive cell lines): does not have any growth inhibition effect
